Patent US9505730B2, “Mineralocorticoid receptor antagonists” (Merck Sharp & Dohme Corp., priority 2011, dated 2016)
pIC50: −log10 of the molar value.

Molecular target: T1, full-length human Mineralocorticoid Receptor (MR) (Homo sapiens, UniProt P08235)
T1 construct: host or cells: PathHunter CHO-K1 cells
T1 sequence (P08235 1-984): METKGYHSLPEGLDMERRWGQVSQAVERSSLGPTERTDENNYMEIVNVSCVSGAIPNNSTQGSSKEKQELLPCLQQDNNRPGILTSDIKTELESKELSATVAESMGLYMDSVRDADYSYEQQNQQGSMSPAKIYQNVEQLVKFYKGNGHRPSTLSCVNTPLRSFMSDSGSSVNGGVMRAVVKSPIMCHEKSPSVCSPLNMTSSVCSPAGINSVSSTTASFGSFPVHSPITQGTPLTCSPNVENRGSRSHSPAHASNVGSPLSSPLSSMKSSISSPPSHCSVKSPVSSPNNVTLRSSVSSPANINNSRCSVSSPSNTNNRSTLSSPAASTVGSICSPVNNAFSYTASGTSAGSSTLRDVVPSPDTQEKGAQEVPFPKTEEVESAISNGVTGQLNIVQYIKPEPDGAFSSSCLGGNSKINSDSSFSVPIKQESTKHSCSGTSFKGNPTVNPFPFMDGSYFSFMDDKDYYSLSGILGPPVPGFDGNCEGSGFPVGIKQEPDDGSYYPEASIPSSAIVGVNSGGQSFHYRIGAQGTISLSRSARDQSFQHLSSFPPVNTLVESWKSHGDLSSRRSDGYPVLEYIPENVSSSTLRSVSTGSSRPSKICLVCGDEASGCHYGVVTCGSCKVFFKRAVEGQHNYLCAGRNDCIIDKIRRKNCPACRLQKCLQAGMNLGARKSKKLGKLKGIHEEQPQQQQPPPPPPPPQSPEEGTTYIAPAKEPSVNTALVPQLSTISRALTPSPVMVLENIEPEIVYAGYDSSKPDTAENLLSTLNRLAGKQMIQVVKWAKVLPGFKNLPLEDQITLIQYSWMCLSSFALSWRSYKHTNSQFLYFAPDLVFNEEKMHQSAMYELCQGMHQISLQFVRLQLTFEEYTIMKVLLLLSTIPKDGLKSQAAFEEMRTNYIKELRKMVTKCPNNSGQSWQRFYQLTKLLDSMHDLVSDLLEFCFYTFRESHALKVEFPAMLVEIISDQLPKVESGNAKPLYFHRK
Assay: human MR NH Pro assay (PathHunter Protein:Protein interaction assay, MR antagonism)
Format: cell-based
Conditions: PathHunter CHO-K1 cells overexpressing human MR; aldosterone 0.3 nM; 6 hours at 37° C.; luminescence; read-out: IC50 rating
Method: The activity of the compounds of the present invention regarding mineralocorticoid receptor antagonism was evaluated using the following assay.
Assessment of Mr Potency in Hmr Nh Pro Assay
The human MR NH Pro assay is a commercially available PathHunter™ Protein: Protein interaction assay (DiscoveRx; http://www.discoverx.com/nhrs/prod-nhrs.php) that measures the ability of compounds to antagonize full-length human Mineralocorticoid Receptor (MR) binding to a coactivator peptide. PathHunter™ CHO-K1 cells that overexpress human MR (Cat #93-0456C2, Lot No: 09B0913) were cultured in growth media (F12K w/Glutamine and phenol red (Gibco 11765-047) supplemented with 10% HI FBS (Gibco 16000); 0.25 mg/ml Hygromycin in PBS (Invitrogen 10687-010, 50 mg/ml); 100 I.U./mL and 100 μg/mL Pen/Strep (Gibco 15140-122); 0.6 mg/mL Geneticin).
Compounds were assessed for MR antagonist activity by incubating the cells with a titrating dose of compound in F12K w/Glutamine and phenol red culture media (Invitrogen 11765-047) supplemented with 1% Charcoal/Dextran Treated FBS (Hyclone #SH30068.01) and aldosterone (0.3 nM) for 6 hours at 37° C.
• F12K w/Glutamine and phenol red (Gibco 11765-047) • 10% HI FBS (Gibco 16000) • 0.25 mg/ml Hygromycin in PBS (Invitrogen 10687-010, 50 mg/ml) • 100 I.U./mL and 100 μg/mL Pen/Strep (Gibco 15140-122) • 0.6 mg/mL Geneticin (Gibco 10131, 50 mg/ml) 2. Assay media: • F12K w/Glutamine and phenol red (Invitrogen 11765-047) • 1% Charcoal/Dextran Treated FBS (Hyclone #SH30068.01) 3. 3× PathHunter Detection Reagents (Cat#93-0001) (need ˜6 ml/plate). […] Control Agonist: Aldosterone: Sigma cat #A9477 • Prepare stock solution—10 μM in DMSO kept at −20 C • for assay, dilute in assay media to 1.8 or 6 nM (6× of final concentration=about 0.3 nM to about 1.0 nM) 5. Cell line: PathHunter CHO-K1 MR cells Cat #93-0456C2, Lot No: 09B0913, from operation liquid nitrogen stock. 6. Control Antagonist: Spironolactone: Sigma #S-3378 and Eplerenone Sigma #107724-20-9 (10 mM stock concentration also prepared in DMSO and stored at −20° C.). Methods: Assay Set up and Calculations: • 1. Cells were grown in F12+FBS+Hygromycin+pen/strep+Genetin. • 2. Cells were collected with 0.05% trypsin and the cell suspension was spun and resuspended in a volume of F12+1.5% CD-FBS and counted. • 3. The cells were resuspended to 4×10^5 cells/mL. • 4. Cells were (25 μL/well) added to the wells of a 384 well plate. • 5. The plate was then incubated at 37° C. over night in a humidified incubator with 5% CO2. • 6. Test compounds were titrated starting at 4.4 mM, 10-point titration in 1:3 dilution. • 7. Aldosterone was diluted in assay media to 1.8 nM or 6 nM from 10 μM stock (final concentration to be about 0.3 nM to about 1.0 nM). Protocol for 384 well plate format: 6 hr treatment: • 1. Plated 10K exponentially growing cells/well (25 μL) resuspended in assay media to each well using the Multidrop (Thermo Electron). Use white wall, clear bottom assay plates (Costar #3570) and incubate overnight at 37° C., 5% CO2. • 2. 0.25 μL 120× test compound (final DMSO concentration should be <1%) was added to each well n=2, 10 point titrations starting at 36.7 μM final concentration. • 3. 5 μL 6× agonist (final aldosterone concentration should be about 0.3 nM to about 1.0 nM) was added to all wells using the PlateMate Plus.
(ThermoFisher) (except those wells in columns 23 and 24) • 4. 5 μL of assay media was added to all wells in column 23 and 24. • 5. Plates were incubated 6 hrs at 37° C., 5% CO2. • 6. 15 μL 3× DiscoveRx detection reagent was added to each well. • 7. Plates were incubated for 1 hour at room temperature (plates stored in the dark). • 8. Plates were read on Envision (PerkinElmer) luminesence plate reader and analyzed using ADA. LC/MS method: (LC2M_Low/Med_Positive mode). LC Conditions: 5-98% CH3CN/H2O+v 0.1% TFA over 1.25 min; Flow Rate=1.5 mL/min, UV wavelength 254 nm; Column: Waters XTerra® MS C18 3.5 μm 2.1×20 mm IS™

First: COc1cc(CNC(=O)[C@@]2(Cc3ccccc3)OC(=O)N(C3CCCc4ccccc43)C2=O)cc(OC)c1 (stereo partly drawn) [Compound 7, (5R)-5-Benzyl-N-(3,5-dimethoxybenzyl)-2,4-dioxo-3-(1,2,3,4-tetrahydronaphthalen-1-yl)-1,3-oxazolidine-5-carboxamide]
Second: COc1cc(CNC(=O)[C@@]2(Cc3ccccc3)OC(=O)N([C@@H]3CCc4ccccc43)C2=O)cc(OC)c1 [Compound 11, (5R)-5-Benzyl-3-[(1R)-2,3-dihydro-1H-inden-1-yl]-N-(3,5-dimethoxybenzyl)-2,4-dioxo-1,3-oxazolidine-5-carboxamide]
The pIC50 of the first is lower: 6.30 to 7.00 for the first, greater than 7.00 for the second. The second is the more potent here.

`C[C@H](c1ccccc1)N1C(=O)O[C@](Cc2ccccc2)(C(=O)N[C@H]2C[C@H](c3ccccc3)C2)C1=O` [Compound 4, (5R)-5-Benzyl-2,4-dioxo-N-(trans-3-phenylcyclobutyl)-3-[(1R)-1-phenylethyl]-1,3-oxazolidine-5-carboxamide] and `C[C@H](c1ccc(F)cc1)N1C(=O)O[C@](Cc2ccccc2)(C(=O)Nc2ccccc2)C1=O` [Compound 19, (5R)-5-Benzyl-3-[(1R)-1-(4-fluorophenyl)ethyl]-2,4-dioxo-N-phenyl-1,3-oxazolidine-5-carboxamide] fall in the same range of pIC50: 6.30 to 7.00 for the first, 6.30 to 7.00 for the second.

First: C[C@H](c1ccccc1)N1C(=O)N[C@](Cc2ccccc2)(C(=O)N2CCc3ccccc3C2)C1=O (single isomer, unassigned) [Compound 23]
Second: COc1cc(CNC(=O)[C@@]2(Cc3ccccc3)OC(=O)N([C@H](C)c3ccccc3)C2=O)cc(OC)c1 [Compound 1, (5R)-Benzyl-N-(3,5-dimethoxybenzyl)-2,4-dioxo-3-[(1R)-1-phenylethyl]-1,3-oxazolidine-5-carboxamide]
The pIC50 of the first is lower: 5.35 to 6.30 for the first, greater than 7.00 for the second.

First: COc1cc(CNC(=O)[C@@]2(Cc3ccccc3)OC(=O)N([C@H](C)C3CCCCC3)C2=O)cc(OC)c1 [Compound 10, (5R)-5-Benzyl-3-[(1R)-1-cyclohexylethyl]-N-(3,5-dimethoxybenzyl)-2,4-dioxo-1,3-oxazolidine-5-carboxamide]
Second: COc1cc(CNC(=O)[C@@]2(Cc3ccccc3)OC(=O)N(C(C)C)C2=O)cc(OC)c1 [Compound 6, (5R)-5-Benzyl-N-(3,5-dimethoxybenzyl)-3-(1-methylethyl)-2,4-dioxo-1,3-oxazolidine-5-carboxamide]
The pIC50 of the first is higher: greater than 7.00 for the first, 6.30 to 7.00 for the second.

`C[C@H](c1ccc(F)cc1)N1C(=O)O[C@](Cc2ccccc2)(C(=O)Nc2ccc(F)cc2)C1=O` [Compound 15, (5R)-5-Benzyl-N-(4-fluorophenyl)-3-[(1R)-1-(4-fluorophenyl)ethyl]-2,4-dioxo-1,3-oxazolidine-5-carboxamide] and `C[C@H](c1ccc(F)cc1)N1C(=O)O[C@](Cc2ccccc2)(C(=O)Nc2cccc(F)c2)C1=O` [Compound 13, (5R)-5-Benzyl-N-(3-fluorophenyl)-3-[(1R)-1-(4-fluorophenyl)ethyl]-2,4-dioxo-1,3-oxazolidine-5-carboxamide] fall in the same range of pIC50: 6.30 to 7.00 for the first, 6.30 to 7.00 for the second.

Compared with `COc1cc(CNC(=O)C2(Cc3cccc(Cl)c3)OC(=O)N([C@H](C)c3ccccc3)C2=O)cc(OC)c1` (stereo partly drawn) [Compound 5, 5-(3-Chlorobenzyl)-N-(3,5-dimethoxybenzyl)-2,4-dioxo-3-[(1R)-1-phenylethyl]-1,3-oxazolidine-5-carboxamide], `COc1cc(CNC(=O)[C@@]2(Cc3ccccc3)OC(=O)N([C@H](C)c3ccc(F)cc3)C2=O)cc(OC)c1` [Compound 8, (5R)-5-Benzyl-N-(3,5-dimethoxybenzyl)-3-[(1R)-1-(4-fluorophenyl)ethyl]-2,4-dioxo-1,3-oxazolidine-5-carboxamide] is higher in pIC50: 5.35 to 6.30 for the first, greater than 7.00 for the second. The second is the more potent here.

`C[C@H](c1ccc(F)cc1)N1C(=O)O[C@](Cc2ccccc2)(C(=O)Nc2cccnc2)C1=O` [Compound 20] and `C[C@H](C1CCCCC1)N1C(=O)O[C@](Cc2ccc(F)cc2)(C(=O)Nc2ccc(Cl)cc2)C1=O` [Compound 16, (5R)-N-(4-Chlorophenyl)-3-[(1R)-1-cyclohexylethyl]-5-(4-fluorobenzyl)-2,4-dioxo-1,3-oxazolidine-5-carboxamide] fall in the same range of pIC50: 6.30 to 7.00 for the first, 6.30 to 7.00 for the second.
